# ChEMBL document CHEMBL5143670, “Discovery and preclinical profile of LX-039, a novel indole-based oral selective estrogen receptor degrader (SERD)” (Bioorg Med Chem Lett, 2022)
# Assays:
# [1] = Toxicity in mouse xenografted with human MCF7 cells assessed as body weight change at 20 mg/kg, po administered once daily for 21 days; format: organism-based; details: in vivo, 504 h, time 21 day
# [2] = Binding affinity to estrogen receptor (unknown origin); set-up: species or system Homo sapiens
# [3] = Induction of estrogen receptor degradation in human MCF7 cells incubated for 4 hrs by in-cell Western assay; format: cell-based; details: MCF7, 4 h
# MCF7 [4] = assay: Antiproliferative activity against human MCF7 cells measured after 5 days by CellTiter-GLo luminescent assay; format: functional, cell-based; details: MCF7, 120 h
# [5] = Volume of distribution in iv dosed CD-1 mouse; format: ADME, organism-based; details: in vivo
# [6] = Clearance in iv dosed CD-1 mouse; format: ADME, organism-based; details: in vivo
# [7] = Cmax in CD-1 mouse at 2.5 mg/kg, po; format: ADME, organism-based; set-up: dose 2.5 mg/kg, route po; details: in vivo
# [8] = AUC (0 to 24 hrs) in CD-1 mouse at 2.5 mg/kg, po; format: ADME, organism-based; set-up: time < 24 hr, dose 2.5 mg/kg, route po; details: in vivo; for AUC(0-t) at 24 h: CD-1, mouse
# [9] = Oral bioavailability in CD-1 mouse at 2.5 mg/kg; format: ADME, organism-based; details: in vivo; for bioavailability: CD-1, mouse
# MCF7 [10] = assay: Antitumor activity against tamoxifen-resistant human MCF7 cells xenografted in mouse assessed as tumor growth inhibition at 3 mg, po dosed once daily for 21 days relative to control; format: functional; details: time 21 day
# [11] = In vivo antagonist activity at estrogen receptor in immature CD-IGS rat assessed as inhibition of estradiol-induced uterine growth by measuring uterine wet weight pretreated with compound for 15 mins followed by estradiol addition administered orally for three days and measured on day 4 relative to control; format: functional; details: route po; time 4 day
# [12] = Permeability of the compound from apical to basolateral side in human Caco-2 cells; format: ADME, cell-based; details: read-out: permeability
# [13] = Protein binding in human plasma assessed as free fraction; format: ADME, cell-free
# MCF7 [14] = assay: Antitumor activity against human MCF7 cells xenografted in mouse assessed as tumor growth inhibition at 20 mg/kg, po administered once daily for 21 days; format: functional; details: MCF7, 504 h, time 21 day, read-out: TGI
# [15] = Permeability of the compound from basolateral to apical side in human Caco-2 cells; format: ADME, cell-based; details: read-out: permeability
# [16] = Efflux ratio of apparent permeability from basolateral to apical side over apical to basolateral side in human Caco-2 cells; format: ADME, cell-based
# [17] = Metabolic stability in mouse hepatocyte assessed as intrinsic clearance measured per 10^6 cells; format: ADME, cell-based; details: hepatocytes, read-out: CLH
# [18] = Metabolic stability in rat hepatocytes assessed as intrinsic clearance measured per million cells; format: ADME, cell-based, Hepatocyte; details: read-out: CLH
# [19] = Metabolic stability in dog hepatocytes assessed as intrinsic clearance measured per million cells; format: ADME, cell-based, Canis lupus familiaris, Hepatocyte; details: read-out: CLH
# [20] = Metabolic stability in human hepatocytes assessed as intrinsic clearance measured per million cells; format: ADME, cell-based, Hepatocyte; details: read-out: CLH
# Cytochrome P450 3A4 = Cytochrome P450 3A4 (Homo sapiens, UniProt P08684); assay: Inhibition of CYP3A4 (unknown origin) using testosterone as substrate; format: ADME
# Cytochrome P450 2C9 = Cytochrome P450 2C9 (Homo sapiens, UniProt P11712); assay: Inhibition of CYP2C9 (unknown origin); format: ADME
# Cytochrome P450 2C19 = Cytochrome P450 2C19 (Homo sapiens, UniProt P33261); assay: Inhibition of CYP2C19 (unknown origin); format: ADME
# Cytochrome P450 2D6 = Cytochrome P450 2D6 (Homo sapiens, UniProt P10635); assay: Inhibition of CYP2D6 (unknown origin); format: ADME
# Cytochrome P450 1A2 = target: T1, Cytochrome P450 1A2 (Homo sapiens, UniProt P05177); assay: Inhibition of CYP1A2 (unknown origin); format: ADME
# T1 sequence (P05177 whole entry): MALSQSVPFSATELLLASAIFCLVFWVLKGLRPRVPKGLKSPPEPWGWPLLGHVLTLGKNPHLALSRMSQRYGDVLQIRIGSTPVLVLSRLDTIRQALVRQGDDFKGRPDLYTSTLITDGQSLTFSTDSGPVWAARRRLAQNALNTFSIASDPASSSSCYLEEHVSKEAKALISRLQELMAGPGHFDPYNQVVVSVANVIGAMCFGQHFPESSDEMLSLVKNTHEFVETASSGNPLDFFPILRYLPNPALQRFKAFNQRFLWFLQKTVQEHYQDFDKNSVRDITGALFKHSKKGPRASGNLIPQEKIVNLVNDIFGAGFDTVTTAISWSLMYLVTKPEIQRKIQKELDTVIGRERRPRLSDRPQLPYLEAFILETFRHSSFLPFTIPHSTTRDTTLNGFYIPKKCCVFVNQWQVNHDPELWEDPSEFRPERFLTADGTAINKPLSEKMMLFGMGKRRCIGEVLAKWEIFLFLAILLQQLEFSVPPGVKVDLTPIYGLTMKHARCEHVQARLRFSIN
# MCF7 [21] = assay: Antitumor activity against human MCF7 cells xenografted in mouse assessed as tumor growth inhibition when administered orally once daily for 21 days; format: functional, cell-based; details: dose 6.5-60 mg/kg, route po, time 21.0 day, DDE = dose-dependent effect
# MCF7 [22] = assay: Antitumor activity against human MCF7 cells xenografted in mouse assessed as tumor shrinkage by measuring tumor growth inhibition at 60 mg/kg, po administered once daily for 21 days; format: functional; details: MCF7, 504 h, time 21 day, read-out: TGI
# [23] = Toxicity in mouse xenografted with human MCF7 cells assessed as change in body weight at 6.5 to 60 mg/kg, po administered once daily for 21 days; format: organism-based; details: in vivo, 504 h, dose 6.5-60 mg/kg, time 21 day
# MCF7 [24] = assay: Antitumor activity against tamoxifen-resistant human MCF7 cells xenografted in mouse assessed as tumor growth inhibition at 200 mg/kg, po dosed once daily for 21 days relative to control; format: functional; details: MCF7, 504 h, time 21 day, read-out: TGI
# [25] = Volume of distribution in iv dosed Sprague-Dawley rat; format: ADME, organism-based; details: in vivo
# [26] = Clearance in iv dosed Sprague-Dawley rat; format: ADME, organism-based; details: in vivo
# [27] = C0 in Sprague-Dawley rat at 1 mg/kg, iv; format: ADME, organism-based; details: in vivo
# [28] = AUC (0 to 24 hrs) in Sprague-Dawley rat at 1 mg/kg, iv; format: ADME, organism-based; set-up: time < 24 hr, dose 1 mg/kg, route iv; details: in vivo
# [29] = Cmax in Sprague-Dawley rat at 1 mg/kg, po; format: ADME, organism-based; set-up: dose 1 mg/kg, route po; details: in vivo
# [30] = AUC (0 to 24 hrs) in Sprague-Dawley rat at 1 mg/kg, po; format: ADME, organism-based; set-up: time < 24 hr, dose 1 mg/kg, route po; details: in vivo
# [31] = Oral bioavailability in Sprague-Dawley rat at 1 mg/kg; format: ADME, organism-based; details: in vivo
# [32] = Volume of distribution in iv dosed Beagle dog; format: ADME, organism-based, Canis lupus familiaris; details: in vivo
# [33] = Clearance in iv dosed Beagle dog; format: ADME, organism-based, Canis lupus familiaris; details: in vivo
# [34] = C0 in Beagle dog at 1 mg/kg, iv; format: ADME, organism-based, Canis lupus familiaris; details: in vivo
# [35] = AUC (0 to 24 hrs) in Beagle dog at 1 mg/kg, iv; format: ADME, organism-based, Canis lupus familiaris; set-up: time < 24 hr, dose 1 mg/kg, route iv; details: in vivo
# [36] = Cmax in Beagle dog at 1 mg/kg, po; format: ADME, organism-based, Canis lupus familiaris; set-up: dose 1 mg/kg, route po; details: in vivo
# [37] = AUC (0 to 24 hrs) in Beagle dog at 1 mg/kg, po; format: ADME, organism-based, Canis lupus familiaris; set-up: time < 24 hr, dose 1 mg/kg, route po; details: in vivo
# [38] = Oral bioavailability in Beagle dog at 1 mg/kg; format: ADME, organism-based, Canis lupus familiaris; details: in vivo
# [39] = Toxicity in Sprague-Dawley rat assessed as adverse effects at 500 mg/kg, po; format: organism-based; details: in vivo
# [40] = Toxicity in Beagle dog assessed as adverse effects at 1000 mg/kg, po; format: organism-based, Canis lupus familiaris; details: in vivo
# [41] = Genotoxicity in Salmonella typhimurium by Ames test; format: toxicity; details: salmonella enterica subsp. enterica serovar typhimurium
# Sequence of Cytochrome P450 2C19 (P33261 whole entry): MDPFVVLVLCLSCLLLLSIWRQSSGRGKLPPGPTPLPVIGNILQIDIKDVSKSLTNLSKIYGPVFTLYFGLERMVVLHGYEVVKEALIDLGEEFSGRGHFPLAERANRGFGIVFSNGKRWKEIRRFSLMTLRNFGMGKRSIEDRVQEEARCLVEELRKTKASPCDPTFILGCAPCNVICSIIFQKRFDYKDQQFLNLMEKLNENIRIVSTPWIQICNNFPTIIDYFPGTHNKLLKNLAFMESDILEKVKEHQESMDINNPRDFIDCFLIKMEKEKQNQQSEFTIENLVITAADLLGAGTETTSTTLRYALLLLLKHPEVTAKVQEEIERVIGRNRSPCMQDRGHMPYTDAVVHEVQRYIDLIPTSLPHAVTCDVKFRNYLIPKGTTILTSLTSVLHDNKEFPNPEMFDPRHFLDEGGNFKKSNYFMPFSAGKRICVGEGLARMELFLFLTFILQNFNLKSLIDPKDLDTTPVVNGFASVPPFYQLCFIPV
# Sequence of Cytochrome P450 2D6 (P10635 whole entry): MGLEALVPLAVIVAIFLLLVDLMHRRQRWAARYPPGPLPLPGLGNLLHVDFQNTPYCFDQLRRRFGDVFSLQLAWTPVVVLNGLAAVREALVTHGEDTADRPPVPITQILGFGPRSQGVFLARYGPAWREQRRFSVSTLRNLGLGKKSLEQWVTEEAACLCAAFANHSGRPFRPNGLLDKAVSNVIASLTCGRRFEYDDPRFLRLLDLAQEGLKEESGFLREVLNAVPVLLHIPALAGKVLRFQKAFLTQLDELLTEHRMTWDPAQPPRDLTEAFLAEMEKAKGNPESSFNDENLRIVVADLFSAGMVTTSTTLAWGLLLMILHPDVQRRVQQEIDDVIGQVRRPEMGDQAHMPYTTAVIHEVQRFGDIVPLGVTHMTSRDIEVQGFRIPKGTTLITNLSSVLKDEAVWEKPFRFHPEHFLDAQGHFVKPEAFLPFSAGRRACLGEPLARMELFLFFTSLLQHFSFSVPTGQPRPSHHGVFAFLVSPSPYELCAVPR
# Sequence of Cytochrome P450 2C9 (P11712 whole entry): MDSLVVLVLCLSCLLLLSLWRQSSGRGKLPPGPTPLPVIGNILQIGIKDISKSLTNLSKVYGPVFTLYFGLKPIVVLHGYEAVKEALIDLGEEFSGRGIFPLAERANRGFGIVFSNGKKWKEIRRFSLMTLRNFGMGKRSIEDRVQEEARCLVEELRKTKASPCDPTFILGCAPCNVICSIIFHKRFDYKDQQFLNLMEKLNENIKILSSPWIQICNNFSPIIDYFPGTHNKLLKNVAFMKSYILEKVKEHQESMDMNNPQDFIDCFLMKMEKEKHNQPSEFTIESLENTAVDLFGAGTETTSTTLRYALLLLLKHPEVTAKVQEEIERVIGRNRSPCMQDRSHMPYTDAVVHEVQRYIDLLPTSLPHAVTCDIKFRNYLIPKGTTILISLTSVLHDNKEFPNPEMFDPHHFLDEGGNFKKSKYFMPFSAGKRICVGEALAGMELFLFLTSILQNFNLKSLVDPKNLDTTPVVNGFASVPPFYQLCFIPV
# Sequence of Cytochrome P450 3A4 (P08684 whole entry): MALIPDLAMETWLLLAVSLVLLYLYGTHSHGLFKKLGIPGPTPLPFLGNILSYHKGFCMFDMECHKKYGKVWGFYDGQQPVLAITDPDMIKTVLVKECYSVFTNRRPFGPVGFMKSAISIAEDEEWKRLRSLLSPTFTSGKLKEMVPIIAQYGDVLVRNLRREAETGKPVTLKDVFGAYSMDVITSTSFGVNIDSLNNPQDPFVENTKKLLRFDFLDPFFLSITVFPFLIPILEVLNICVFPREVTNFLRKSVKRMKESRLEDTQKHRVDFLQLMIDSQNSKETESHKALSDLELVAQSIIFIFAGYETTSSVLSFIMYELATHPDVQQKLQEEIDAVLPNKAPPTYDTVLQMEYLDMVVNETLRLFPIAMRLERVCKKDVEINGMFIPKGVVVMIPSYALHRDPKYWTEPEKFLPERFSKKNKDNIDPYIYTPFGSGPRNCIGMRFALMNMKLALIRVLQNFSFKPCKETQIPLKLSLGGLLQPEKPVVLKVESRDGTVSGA
smiles,measurement,setting,value
CC/C(=C(/c1ccc(/C=C/C(=O)O)cc1)c1[nH]c2ccccc2c1Cl)c1ccc(Cl)cc1C#N,Activity,[1],Non-Toxic
same,IC50,[2],0.23 nM
same,EC50,[3],0.735 nM
same,IC50,MCF7 [4],0.97 nM
same,Vd,[5],4.48 L/kg
same,clearance,[6],29.7 mL/min/kg
same,Cmax,[7],246 nM
same,AUC(0-t) at 24 h,[8],0.883 µM·h
same,bioavailability,[9],33.7%
C[C@]12CC[C@@H]3c4ccc(O)cc4C[C@@H](CCCCCCCCC[S+]([O-])CCCC(F)(F)C(F)(F)F)[C@H]3[C@@H]1CC[C@@H]2O (stereo not given in full) [FULVESTRANT],TGI,MCF7 [10],66%
CC/C(=C(/c1ccc(/C=C/C(=O)O)cc1)c1cc2ccccc2[nH]1)c1ccc(F)cc1Cl,IC50,[2],1.6 nM
same,EC50,[3],39 nM
same,IC50,MCF7 [4],21 nM
CC/C(=C(/c1ccc(/C=C/C(=O)O)cc1)c1[nH]c2ccccc2c1C#N)c1ccc(F)cc1Cl,IC50,[2],0.23 nM
same,EC50,[3],2.6 nM
same,IC50,MCF7 [4],4.85 nM
same,Vd,[5],4.28 L/kg
same,clearance,[6],104 mL/min/kg
same,Cmax,[7],35 nM
same,AUC(0-t) at 24 h,[8],0.049 µM·h
same,bioavailability,[9],6.21%
CC/C(=C(/c1ccc(/C=C/C(=O)O)cc1)c1[nH]c2ccccc2c1Cl)c1cc(Cl)sc1Cl,IC50,[2],1.79 nM
same,EC50,[3],5.13 nM
same,IC50,MCF7 [4],20 nM
CC/C(=C(/c1ccc(/C=C/C(=O)O)cc1)c1[nH]c2ccccc2c1C)c1ccc(F)cc1Cl,EC50,[3],1.26 nM
same,IC50,MCF7 [4],4.78 nM
CC/C(=C(/c1ccc(/C=C/C(=O)O)cc1)c1[nH]c2ccccc2c1Cl)c1ccccc1C(F)(F)F,IC50,[2],0.82 nM
same,EC50,[3],9.95 nM
same,IC50,MCF7 [4],13 nM
CC/C(=C(/c1ccc(/C=C/C(=O)O)cc1)c1ccc2[nH]ncc2c1)c1ccc(F)cc1Cl [BRILANESTRANT],inhibition (INH),[11],65%
CC/C(=C(/c1ccc(/C=C/C(=O)O)cc1)c1[nH]c2ccccc2c1Br)c1ccc(F)cc1Cl,IC50,[2],0.66 nM
same,EC50,[3],2.44 nM
same,IC50,MCF7 [4],8.53 nM
CC/C(=C(/c1ccc(/C=C/C(=O)O)cc1)c1[nH]c2ccccc2c1Cl)c1ccsc1C#N,IC50,[2],0.18 nM
same,EC50,[3],2.25 nM
same,IC50,MCF7 [4],7.56 nM
CC/C(=C(/c1ccc(/C=C/C(=O)O)cc1)c1[nH]c2ccccc2c1Cl)c1ccc(F)cc1Cl,Papp A→B,[12],0.94 ×10⁻⁶ cm/s
same,fraction unbound,[13],0.051
same,Activity,[1],Non-Toxic
same,inhibition in vivo at 20 mg/kg,MCF7 [14],104%
same,IC50,[2],0.99 nM
same,EC50,[3],2.29 nM
same,IC50,MCF7 [4],3.76 nM
same,Vd,[5],0.5 L/kg
same,Cmax,[7],1870 nM
same,AUC,"[8]; mouse, 24 h",15.329 µM·h
same,F,"[9]; mouse, po, 2.5 mg/kg",60.1%
same,Papp B→A,[15],1.25 ×10⁻⁶ cm/s
same,efflux ratio,[16],1.32
same,hepatocyte CLint,[17],9.8 µL/min/1e6 cells
same,hepatocyte CLint,[18],11.1 µL/min/1e6 cells
same,hepatocyte CLint,[19],8.6 µL/min/1e6 cells
same,hepatocyte CLint,[20],15.2 µL/min/1e6 cells
same,IC50,Cytochrome P450 3A4,7000 nM
same,IC50,Cytochrome P450 2C9,5100 nM
same,IC50,Cytochrome P450 2C19,10100 nM
same,IC50,Cytochrome P450 2D6,14300 nM
same,IC50,Cytochrome P450 1A2,7700 nM
same,inhibition,MCF7 [21],Dde
same,inhibition in vivo at 60 mg/kg,MCF7 [22],113%
same,Activity,[23],Non-Toxic
same,inhibition in vivo at 200 mg/kg,MCF7 [24],91%
same,Vd,[25],2 L/kg
same,clearance,[26],7.7 mL/min/kg
same,C0,[27],2610 nM
same,AUC(0-t) at 24 h,[28],4.82 µM·h
same,Cmax,[29],381 nM
same,AUC(0-t) at 24 h,[30],2.7 µM·h
same,bioavailability,[31],56%
same,Vd,[32],0.42 L/kg
same,clearance,[33],0.84 mL/min/kg
same,C0,[34],12800 nM
same,AUC(0-t) at 24 h,[35],43.8 µM·h
same,Cmax,[36],2550 nM
same,AUC(0-t) at 24 h,[37],24.2 µM·h
same,bioavailability,[38],55%
same,Activity,[39],Non-Toxic
same,Activity,[40],Non-Toxic
same,Activity,[41],Non-Toxic
same,inhibition (INH),[11],94%
